Values of other authors as cited in patent publication US8785426B1, “Testosterone gel compositions and related methods” (Upsher-Smith Laboratories, Inc., priority 2013, dated 2014).

Details: reported solubility

## C[C@]12CC[C@H]3[C@@H](CCC4=CC(=O)CC[C@@]43C)[C@@H]1CC[C@@H]2O [Testosterone, 17-β-hydroxyandrost-4-en-3-one]
  solubility in ethyl alcohol: 0.17 grams per gram ethyl alcohol
